Assay results as given in US11753407B2, “Compounds for treating spinal muscular atrophy” (PTC Therapeutics, Inc., priority 2012, dated 2023).

Key:
[1] = system: SMN2 minigene mRNA (SMN2-A minigene) in HEK293H cells; assay: SMN2 minigene mRNA splicing RT-qPCR assay in cultured cells; format: cell-based, human; conditions: Homo sapiens, HEK293-H; concentration increasing full length SMN2 mRNA 1.5-fold relative to vehicle-treated cells; HEK293H cells with SMN2-A minigene, 24 hours, 7-point concentration data; read-out: EC1.5x for production of full length SMN2 mRNA
Outline: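 Stable SMN2-A minigene HEK293H; cpd 7-pt 3.16-fold series, 200× in DMSO, 24 h, 37 °C, n=2. Lysates → multiplex RT-qPCR (minigene FL + GAPDH), efficiency-corrected ΔΔCt vs vehicle. EC1.5× = 1.5-fold FL mRNA gain.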

[2] = system: Smn protein in SMA patient fibroblast cells (GM03813); assay: Smn protein assay in cultured cells (SMN HTRF); format: cell-based, human; conditions: SMA patient fibroblast cells, 48 hours; for EC1.5x for Smn protein expression: 7-point concentration curve, SMN HTRF, concentration producing 1.5 times Smn protein vs DMSO vehicle control; for maximum fold (Fold) increase of Smn protein: 7-point concentration data, fold relative to vehicle control
Outline: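 Fibroblasts, SMA patient; 5,000 cells/well; 7-pt curve, 3.16-fold serial dilution; 48 h, 37 °C, 5% CO2; RIPA lysis 1 h RT; anti-SMN d2 + kryptate overnight RT; HTRF 665/620 nm; fold vs DMSO; EC1.5×, max fold.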

Row | SMILES | melting point | EC (1.5-fold increase) [1] | EC1.5x for Smn protein expression [2] | maximum fold (Fold) increase of Smn protein [2]
1 | Cc1nc2cc(-c3cc(=O)n4cc(N5CCN(C)CC5)ccc4n3)ccc2s1 [Compound 176, 2-(2-methyl-1,3-benzothiazol-5-yl)-7-(4-methylpiperazin-1-yl)-4H-pyrido[1,2-a]pyrimidin-4-one] | 214 to 218 °C | 0.3 to 1 µM | * (An EC1.5× for Smn protein expression between >3 μM and ≤10 μM is indicated by one star (*)) | *** (a fold increase between >1.35 and ≤1.5 is indicated by three stars (***))
2 | Cc1nc2cc(-c3cc(=O)n4cc(N5CCCN(C)CC5)ccc4n3)ccc2s1 [Compound 177, 2-(2-methyl-1,3-benzothiazol-5-yl)-7-(4-methyl-1,4-diazepan-1-yl)-4H-pyrido[1,2-a]pyrimidin-4-one] | 165 to 170 °C | 0.1 to 0.3 µM |  | *** (a fold increase between >1.35 and ≤1.5 is indicated by three stars (***))
3 | Cc1nc2cc(-c3cc(=O)n4cc(N5CCN6CCC[C@H]6C5)ccc4n3)ccc2s1 [Compound 178, 7-[(8aS)-hexahydropyrrolo[1,2-a]pyrazin-2(1H)-yl]-2-(2-methyl-1,3-benzothiazol-5-yl)-4H-pyrido[1,2-a]pyrimidin-4-one] | 254 to 256 °C | 0.3 to 1 µM |  | ** (a fold increase between >1.2 and ≤1.35 is indicated by two stars (**))
4 | Cc1cn(-c2cc(=O)n3cc(N4CCN[C@@H](C)C4)ccc3n2)cn1 [Compound 180, 2-(4-methyl-1H-imidazol-1-yl)-7-[(3S)-3-methylpiperazin-1-yl]-4H-pyrido[1,2-a]pyrimidin-4-one] | 204 to 206 °C | 1 to 3 µM | ** (an EC1.5× between >1 μM and ≤3 μM is indicated by two stars (**)) | **** (a fold increase between >1.5 and ≤1.65 is indicated by four stars (****))
5 | CNCCNc1ccc2nc(-c3ccc(OC)c(OC)c3)cc(=O)n2c1 [Compound 181, 2-(3,4-dimethoxyphenyl)-7-{[2-(methylamino)ethyl]amino}-4H-pyrido[1,2-a]pyrimidin-4-one] | 135 to 138 °C | 1 to 3 µM |  | * (A maximum fold increase of ≤1.2 is indicated by one star (*))
6 | COc1c(F)cc(-c2cc(=O)n3cc(N4CCNCC4)ccc3n2)cc1F [Compound 183, 2-(3,5-difluoro-4-methoxyphenyl)-7-(piperazin-1-yl)-4H-pyrido[1,2-a]pyrimidin-4-one] | 167 to 169 °C | 1 to 3 µM |  | ** (a fold increase between >1.2 and ≤1.35 is indicated by two stars (**))
7 | COc1c(F)cc(-c2cc(=O)n3cc(N4CCN[C@@H](C)C4)ccc3n2)cc1F [Compound 184, 2-(3,5-difluoro-4-methoxyphenyl)-7-[(3S)-3-methylpiperazin-1-yl]-4H-pyrido[1,2-a]pyrimidin-4-one] | 182 to 184 °C | 1 to 3 µM |  | ** (a fold increase between >1.2 and ≤1.35 is indicated by two stars (**))
8 | COc1ccc(-c2cc(=O)n3cc(N4CCC(N(C)C)CC4)ccc3n2)cc1F [Compound 185, 7-[4-(dimethylamino)piperidin-1-yl]-2-(3-fluoro-4-methoxyphenyl)-4H-pyrido[1,2-a]pyrimidin-4-one] | 196 to 201 °C | < 0.1 µM |  | *** (a fold increase between >1.35 and ≤1.5 is indicated by three stars (***))
9 | COc1ccc(-c2cc(=O)n3cc(C4=CCNCC4)ccc3n2)cc1F [Compound 186, 2-(3-fluoro-4-methoxyphenyl)-7-(1,2,3,6-tetrahydropyridin-4-yl)-4H-pyrido[1,2-a]pyrimidin-4-one] | 182 to 184 °C | < 0.1 µM | *** (an EC1.5× between >0.3 μM and ≤1 μM is indicated by three stars (***)) | **** (a fold increase between >1.5 and ≤1.65 is indicated by four stars (****))
10 | C[C@H]1CN(c2ccc3nc(-c4cc(F)cc(Cl)c4)cc(=O)n3c2)CCN1 [Compound 189, 2-(3-chloro-5-fluorophenyl)-7-[(3S)-3-methylpiperazin-1-yl]-4H-pyrido[1,2-a]pyrimidin-4-one] | 188 to 190 °C | 0.3 to 1 µM | *** (an EC1.5× between >0.3 μM and ≤1 μM is indicated by three stars (***)) | **** (a fold increase between >1.5 and ≤1.65 is indicated by four stars (****))
11 | O=c1cc(-c2cc(F)cc(Cl)c2)nc2ccc(N3CCNCC3)cn12 [Compound 190, 2-(3-chloro-5-fluorophenyl)-7-(piperazin-1-yl)-4H-pyrido[1,2-a]pyrimidin-4-one] | 180 to 184 °C | 0.3 to 1 µM | ** (an EC1.5× between >1 μM and ≤3 μM is indicated by two stars (**)) | **** (a fold increase between >1.5 and ≤1.65 is indicated by four stars (****))
12 | Cc1nc2ccc(-c3cc(=O)n4cc(N5CCN[C@H](C)C5)ccc4n3)cc2o1 [Compound 193, 2-(2-methyl-1,3-benzoxazol-6-yl)-7-[(3R)-3-methylpiperazin-1-yl]-4H-pyrido[1,2-a]pyrimidin-4-one] | 175 to 177 °C | < 0.1 µM | **** (an EC1.5x≤0.3 μM is indicated by four stars (****)) | ***** (a fold increase >1.65 is indicated by five stars (*****))
13 | Cc1nc2ccc(-c3cc(=O)n4cc(N5CCNC(C)(C)C5)ccc4n3)cc2o1 [Compound 194, 7-(3,3-dimethylpiperazin-1-yl)-2-(2-methyl-1,3-benzoxazol-6-yl)-4H-pyrido[1,2-a]pyrimidin-4-one] | 160 to 162 °C | < 0.1 µM | **** (an EC1.5x≤0.3 μM is indicated by four stars (****)) | ***** (a fold increase >1.65 is indicated by five stars (*****))

More lines, main results first:

Row | melting point | SMILES | EC (1.5-fold increase) [1] | EC1.5x for Smn protein expression [2] | maximum fold (Fold) increase of Smn protein [2]
14 | 134 to 137 °C | Cc1nc2ccc(-c3cc(=O)n4cc(N5CCCNCC5)ccc4n3)cc2o1 [Compound 195, 7-(1,4-diazepan-1-yl)-2-(2-methyl-1,3-benzoxazol-6-yl)-4H-pyrido[1,2-a]pyrimidin-4-one] | < 0.1 µM | *** (an EC1.5× between >0.3 μM and ≤1 μM is indicated by three stars (***)) | **** (a fold increase between >1.5 and ≤1.65 is indicated by four stars (****))
15 | 146 to 150 °C | Cc1nc2ccc(-c3cc(=O)n4cc(N5CCCN(C)CC5)ccc4n3)cc2o1 [Compound 196, 2-(2-methyl-1,3-benzoxazol-6-yl)-7-(4-methyl-1,4-diazepan-1-yl)-4H-pyrido[1,2-a]pyrimidin-4-one] | < 0.1 µM | **** (an EC1.5x≤0.3 μM is indicated by four stars (****)) | **** (a fold increase between >1.5 and ≤1.65 is indicated by four stars (****))
16 | 214 to 217 °C | Cc1nc2ccc(-c3cc(=O)n4cc(N5CCN6CCC[C@H]6C5)ccc4n3)cc2o1 [Compound 197, 7-[(8aS)-hexahydropyrrolo[1,2-a]pyrazin-2(1H)-yl]-2-(2-methyl-1,3-benzoxazol-6-yl)-4H-pyrido[1,2-a]pyrimidin-4-one] | 0.1 to 0.3 µM | **** (an EC1.5x≤0.3 μM is indicated by four stars (****)) | ***** (a fold increase >1.65 is indicated by five stars (*****))
17 | 194 to 199 °C | Cc1nc2ccc(-c3cc(=O)n4cc(N5CCN6CCC[C@@H]6C5)ccc4n3)cc2o1 [Compound 198, 7-[(8aR)-hexahydropyrrolo[1,2-a]pyrazin-2(1H)-yl]-2-(2-methyl-1,3-benzoxazol-6-yl)-4H-pyrido[1,2-a]pyrimidin-4-one] | < 0.1 µM | **** (an EC1.5x≤0.3 μM is indicated by four stars (****)) | **** (a fold increase between >1.5 and ≤1.65 is indicated by four stars (****))
18 | 207 to 209 °C | COc1cnc(-c2cc(=O)n3cc(N4CCNCC4)ccc3n2)cc1OC [Compound 199, 2-(4,5-dimethoxypyridin-2-yl)-7-(piperazin-1-yl)-4H-pyrido[1,2-a]pyrimidin-4-one] | 0.3 to 1 µM | ** (an EC1.5× between >1 μM and ≤3 μM is indicated by two stars (**)) | **** (a fold increase between >1.5 and ≤1.65 is indicated by four stars (****))
19 | 259 to 261 °C | COc1ccc(-c2cc(=O)n3cc(N4CCC(N(C)C)C4)ccc3c2)cc1F (stereo not drawn) [Compound 200, 7-[3-(dimethylamino)pyrrolidin-1-yl]-2-(3-fluoro-4-methoxyphenyl)-4H-quinolizin-4-one] | 1 to 3 µM |  | * (A maximum fold increase of ≤1.2 is indicated by one star (*))
